According to patent US11945813B2, “5-substituted 4-amino-1H-benzo[c][1,2,6]thiadiazine 2,2-dioxides and formulations and uses thereof” (Firmenich Incorporated, priority 2018, dated 2024):

Legend:
T1R2/T1R3 taste receptor = biological target: T1, T1R2/T1R3 taste receptor (Homo sapiens, UniProt Q8TE23); experiment: Receptor-based assay: sweetener EC50 alone and with test compound (enhancement ratio); type: cell-based; conditions: for Sucralose Enhancement EC50 Ratio: sweetener sucralose; for Sucrose Enhancement EC50 Ratio: sweetener sucrose; for Fructose Enhancement EC50 Ratio: sweetener fructose
T1 sequence (Q8TE23 20-839): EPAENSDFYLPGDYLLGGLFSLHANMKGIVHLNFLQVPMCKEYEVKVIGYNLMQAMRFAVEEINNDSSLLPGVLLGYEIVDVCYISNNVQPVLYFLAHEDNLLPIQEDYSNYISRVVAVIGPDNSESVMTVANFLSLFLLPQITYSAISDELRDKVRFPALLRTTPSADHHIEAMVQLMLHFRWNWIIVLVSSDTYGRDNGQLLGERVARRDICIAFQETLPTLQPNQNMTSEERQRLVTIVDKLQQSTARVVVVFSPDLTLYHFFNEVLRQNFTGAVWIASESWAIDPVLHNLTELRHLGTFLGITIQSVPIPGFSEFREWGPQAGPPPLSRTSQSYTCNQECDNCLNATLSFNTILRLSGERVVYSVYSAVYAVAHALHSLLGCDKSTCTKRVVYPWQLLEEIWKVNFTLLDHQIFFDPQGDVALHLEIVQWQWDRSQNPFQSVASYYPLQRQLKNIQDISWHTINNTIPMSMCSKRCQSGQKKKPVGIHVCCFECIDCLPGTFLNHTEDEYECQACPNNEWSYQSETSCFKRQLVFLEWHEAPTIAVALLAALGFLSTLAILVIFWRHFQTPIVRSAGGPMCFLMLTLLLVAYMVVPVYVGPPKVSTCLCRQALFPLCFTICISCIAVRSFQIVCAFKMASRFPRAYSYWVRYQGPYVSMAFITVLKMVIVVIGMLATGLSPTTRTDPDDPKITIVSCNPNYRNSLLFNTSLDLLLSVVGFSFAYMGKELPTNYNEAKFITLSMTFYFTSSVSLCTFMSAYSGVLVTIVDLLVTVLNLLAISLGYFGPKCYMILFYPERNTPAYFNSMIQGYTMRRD
T1 sequence (Q7RTX0 21-852 partner): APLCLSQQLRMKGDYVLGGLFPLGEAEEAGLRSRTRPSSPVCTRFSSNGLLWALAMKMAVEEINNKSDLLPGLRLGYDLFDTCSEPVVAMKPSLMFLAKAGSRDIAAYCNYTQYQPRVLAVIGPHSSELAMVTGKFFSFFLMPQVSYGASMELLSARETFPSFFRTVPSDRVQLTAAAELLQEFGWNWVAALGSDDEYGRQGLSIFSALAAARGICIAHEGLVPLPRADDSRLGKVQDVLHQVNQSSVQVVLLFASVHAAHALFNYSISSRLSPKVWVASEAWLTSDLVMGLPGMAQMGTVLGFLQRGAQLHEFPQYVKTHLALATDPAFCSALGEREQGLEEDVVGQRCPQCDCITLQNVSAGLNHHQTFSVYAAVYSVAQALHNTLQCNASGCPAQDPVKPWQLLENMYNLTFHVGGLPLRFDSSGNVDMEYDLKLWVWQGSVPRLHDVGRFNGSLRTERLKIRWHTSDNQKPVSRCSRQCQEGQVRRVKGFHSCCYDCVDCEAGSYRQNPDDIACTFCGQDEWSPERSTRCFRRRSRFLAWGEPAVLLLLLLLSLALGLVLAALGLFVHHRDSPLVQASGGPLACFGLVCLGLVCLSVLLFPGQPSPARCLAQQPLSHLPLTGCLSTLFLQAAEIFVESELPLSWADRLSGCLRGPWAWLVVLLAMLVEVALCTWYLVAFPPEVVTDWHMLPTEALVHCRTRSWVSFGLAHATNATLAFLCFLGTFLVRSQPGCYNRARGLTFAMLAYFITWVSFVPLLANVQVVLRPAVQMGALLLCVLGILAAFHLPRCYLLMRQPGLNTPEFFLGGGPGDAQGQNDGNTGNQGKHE
Outline: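 Sucrose, sucralose or fructose EC50 measured on human T1R2/T1R3, alone and with 3, 10 or 50 μM test compound. Enhancement is the EC50 ratio without/with compound, binned A >20, B 10-20, C >1 to <10.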

[1] = Sensory experiments: paired comparison of sweetener alone vs sweetener plus test compound; type: in vivo, human; conditions: panelists
Procedure: (§1) Test samples containing either a sweetener (sucrose or high-fructose corn syrup) alone or in combination with a test compound were presented in pairs to a group of panelists who were asked to determine which of the samples was sweeter. Subjects refrained from eating or drinking (except water) for at least 1 hour prior to the test. Subjects rinsed with water several times to clean the mouth. The samples within a paired comparison test were presented in a randomized, counterbalanced order. Panelists had up to a 1 minute delay between taste tests to clear the mouth of any tastes. Binomial probability tables were used to determine the probability of the correct number of responses occurring for each test at alpha-0.05.
Stock solutions of test compounds were prepared at 1000× final concentration with ethanol to ensure dispersion in solution. Test compound samples including sucrose were prepared by diluting the stock solutions in a low sodium buffer (0.952 g of KCl, 5.444 g of Na2HPO4, and 0.952 g of KH2PO4 in deionized ultrafiltered water) at pH 7.1 and containing sucrose. Test compound samples including high fructose corn syrup were prepared by diluting the stock solutions in the low sodium buffer at pH 2.8 (using citric acid to adjust the pH) and containing high fructose corn syrup. Control samples were balanced to 0.1% ethanol final. […]

[2] = Sensory evaluation of inherent sweetness of test compound; type: in vivo, human; conditions: test compound alone at 10 ppm
Procedure: as §1
Stock solutions of test compounds were prepared at 1000× final concentration with ethanol to ensure dispersion in solution. Test compound samples including sucrose were prepared by diluting the stock solutions in a low sodium buffer (0.952 g of KCl, 5.444 g of Na2HPO4, and 0.952 g of KH2PO4 in deionized ultrafiltered water) at pH 7.1 and containing sucrose. Test compound samples including high fructose corn syrup were prepared by diluting the stock solutions in the low sodium buffer at pH 2.8 (using citric acid to adjust the pH) and containing high fructose corn syrup. Control samples were balanced to 0.1% ethanol final.
Compound 200 was also tested for inherent sweetness. […]

SMILES | Sucralose Enhancement EC50 Ratio (T1R2/T1R3 taste receptor; 10 μM test compound) | Sucrose Enhancement EC50 Ratio (T1R2/T1R3 taste receptor; 3 μM test compound) | Sucrose Enhancement EC50 Ratio (T1R2/T1R3 taste receptor; 10 μM test compound) | Sucrose Enhancement EC50 Ratio (T1R2/T1R3 taste receptor; 50 μM test compound) | sweetness intensity of the combination of test compound and 6% HFCS, compared with HFCS-alone ([1]; test compound at 10 ppm or less with 6% HFCS, low sodium buffer pH 2.8) | Equivalent Sucrose Conc. ([1]; test compound at 10 ppm or less with 6% sucrose, low sodium buffer pH 7.1) | inherent sweetness intensity, compared with sucrose solution [2] [% sucrose] | Fructose Enhancement EC50 Ratio (T1R2/T1R3 taste receptor; 10 μM test compound) | Fructose Enhancement EC50 Ratio (T1R2/T1R3 taste receptor; 50 μM test compound) | Sucralose Enhancement EC50 Ratio (T1R2/T1R3 taste receptor; 50 μM test compound)
CC(C)(COc1cccc2c1C(N)=NS(=O)(=O)N2)Nc1ccnc(-n2ccnc2)n1 [Compound 200, 4-amino-5-(2-((2-(1H-imidazol-1-yl)pyrimidin-4-yl)amino)-2-methylpropoxy)1H-benzo[c][1,2,6]thiadiazine 2,2-dioxide] | A (An “A” value indicates an enhancement ratio of greater than 20) | C (A “C” value indicates an enhancement ratio greater than 1 and less than 10) | C (A “C” value indicates an enhancement ratio greater than 1 and less than 10) | C (A “C” value indicates an enhancement ratio greater than 1 and less than 10) | greater than 6 % HFCS | A (An “A” value indicates an equivalent sucrose concentration of 10% or greater) | < 1.5 |  |  | 
NC1=NS(=O)(=O)Nc2cccc(OC[C@H]3CCCN(c4cc(C(=O)NC5CCCCC5)ccn4)C3)c21 [Compound 609] | B (A “B” value indicates an enhancement ratio from 10 to 20) | C (A “C” value indicates an enhancement ratio greater than 1 and less than 10) | C (A “C” value indicates an enhancement ratio greater than 1 and less than 10) | C (A “C” value indicates an enhancement ratio greater than 1 and less than 10) |  |  |  | C (A “C” value indicates an enhancement ratio greater than 1 and less than 10) | C (A “C” value indicates an enhancement ratio greater than 1 and less than 10) | B (A “B” value indicates an enhancement ratio from 10 to 20)
